From patent publication US20230107216A1, “PANTETHEINE DERIVATIVES AND USES THEREOF” (Comet Therapeutics, Inc., priority 2018, published 2023)
Like-named read-outs stand apart in the source and are kept apart here.

System: Methylmalonic Acidemia (MMA) primary fibroblasts Tsi 5224
Assay: Mitochondrial respiration, XFe96 Extracellular Flux Analyzer (OCR/ECAR), MMA fibroblasts Tsi 5224;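 on Increase in Maximal Respiratory Capacity AUC: relative to vehicle DMSO control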
Format: cell-based
Details: Homo sapiens, Fibroblast
Outline: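 Primary fibroblasts (20000 cells/well) were held 24 h in supplemented DMEM before Seahorse OCR/ECAR profiling. Compounds at 10 to 50 μM or 0.1% DMSO were injected after baseline, then oligomycin 1 μg/ml, FCCP, and rotenone/antimycin A 0.5 μM. Values were normalized to Hoechst nuclear counts, baselined to pre-compound, and expressed relative to vehicle.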

[1] = MMA Tsi 5224, assay condition D (1 mM glucose, 10% FBS), read-out: Increase in Maximal Respiratory Capacity AUC
[2] = MMA Tsi 5224, assay condition D (1 mM glucose, 10% FBS), read-out: Increase in Spare Capacity AUC
[3] = MMA Tsi 5224, assay condition A (10 mM glucose, 2 mM L-glutamine, 1 mM pyruvate, 10% FBS), read-out: Increase in Maximal Respiratory Capacity AUC

Row | SMILES | activation at 10 µM [1] [%] | activation at 10 µM [3] [%] | further results
1 | COC(=O)CC[C@H](N)C(=O)SCCNC(=O)CCNC(=O)[C@H](O)C(C)(C)CO [Compound 411] | ≥ 10 | – | activation at 10 µM [2]: ≥ 10%
2 | COC(=O)CC(C(C)=O)C(=O)SCCNC(=O)CCNC(=O)[C@H](O)C(C)(C)CO (stereo partly drawn) [Compound 410] | ≥ 10 | – | –
3 | CC(O)CC(O)CC(=O)SCCNC(=O)CCNC(=O)[C@H](O)C(C)(C)CO (stereo partly drawn) [Compound 400] | ≥ 10 | – | –
4 | CC(C)C(=O)CC(=O)SCCNC(=O)CCNC(=O)[C@H](O)C(C)(C)CO [Compound 1239, (R)—S-(2-(3-(2,4-dihydroxy-3,3-dimethylbutanamido)propanamido)ethyl) 4-methyl-3-oxopentanethioate] | ≥ 10 | – | –
5 | CC(C(=O)SCCNC(=O)CCNC(=O)[C@H](O)C(C)(C)CO)[C@@H](C)O (stereo partly drawn) [Compound 1244, (2R)-2,4-dihydroxy-N-{2-[(2-{[(3R)-3-hydroxy-2-methylbutanoyl]sulfanyl}ethyl)carbamoyl]ethyl}-3,3-dimethylbutanamide] | – | ≥ 10 | –
6 | C[C@@H](O)CC(=O)CC(=O)SCCNC(=O)CCNC(=O)[C@H](O)C(C)(C)CO [Compound 42, (2R)-2,4-dihydroxy-N-[2-[(2-[[(5R)-5-hydroxy-3-oxohexanoyl]sulfanyl]ethyl)carbamoyl]ethyl]-3,3-dimethylbutanamide] | – | ≥ 10 | –
7 | COC(=O)/C=C/C(=O)SCCNC(=O)CCNC(=O)[C@H](O)C(C)(C)COP(=O)(O)O [Compound 73, methyl (R,E)-4-((2-(3-(2-hydroxy-3,3-dimethyl-4-(phosphonooxy)butanamido)propanamido)ethyl)thio)-4-oxobut-2-enoate] | ≥ 10 | – | –
8 | C[C@@H](O)CC(=O)SCCNC(=O)CCNC(=O)[C@H](O)C(C)(C)CO [Compound 38, S-2-{3-[(R)-2,4-dihydroxy-3,3-dimethylbutyrylamino]propionylamino} ethyl (R)-3-hydroxybutanethioate] | ≥ 10 | – | –
9 | CC(C)(CO)[C@@H](OC(=O)CCC(=O)O)C(=O)NCCC(=O)NCCS [Compound 1311, (R)-4-((4-hydroxy-1-((3-((2-mercaptoethyl)amino)-3-oxopropyl)amino)-3,3-dimethyl-1-oxobutan-2-yl)oxy)-4-oxobutanoic acid] | ≥ 10 | ≥ 10 | –
10 | C[C@H](CC(=O)SCCNC(=O)CCNC(=O)[C@H](O)C(C)(C)CO)OC(=O)CCC(=O)O [Compound 1243, 4-{[(2R)-4-[(2-{3-[(2R)-2,4-dihydroxy-3,3-dimethylbutanamido]propanamido}ethyl)sulfanyl]-4-oxobutan-2-yl]oxy}-4-oxobutanoic acid] | – | – | activation at 10 µM (MMA Tsi 5224, assay condition A (10 mM glucose, 2 mM L-glutamine, 1 mM pyruvate, 10% FBS), read-out: Increase in Spare Capacity AUC): ≥ 10%
11 | CC1(CC(=O)SCCNC(=O)CCNC(=O)[C@H](O)C(C)(C)CO)OCCO1 [Compound 1252, (R)—S-(2-(3-(2,4-dihydroxy-3,3-dimethylbutanamido)propanamido)ethyl)-2-(2-methyl-1,3-dioxolan-2-yl)ethanethioate] | ≥ 10 | – | –
12 | CC(C)(CO)[C@@H](O)C(=O)NCCC(=O)NCCSC(=O)CC(O)C(=O)O (stereo partly drawn) [Compound 39] | – | ≥ 10 | –
13 | CC(=O)SCCNC(=O)CCNC(=O)[C@H](O)C(C)(C)COC(=O)CCC(=O)O [Compound 1242, (R)-12-hydroxy-13,13-dimethyl-2,7,11,16-tetraoxo-15-oxa-3-thia-6,10-diazanonadecan-19-oic acid] | ≥ 10 | – | –
14 | CC(C)(CO)[C@@H](O)C(=O)NCCC(=O)NCCSC(=O)CCC(=O)O [Compound 1, (R)-4-((2-(3-(2,4-dihydroxy-3,3-dimethylbutanamido)propanamido)ethyl)thio)-4-oxobutanoic acid] | – | ≥ 10 | activation at 10 µM (MMA Tsi 5224, assay condition B (1 mM glucose, 2 mM L-glutamine, 1 mM pyruvate, 10% FBS), read-out: Increase in Maximal Respiratory Capacity AUC): ≥ 10%
15 | CCC(C)C(=O)CC(=O)SCCNC(=O)CCNC(=O)[C@H](O)C(C)(C)CO (stereo partly drawn) [Compound 1240, S-(2-(3-((R)-2,4-dihydroxy-3,3-dimethylbutanamido)propanamido)ethyl) 4-methyl-3-oxohexanethioate] | ≥ 10 | ≥ 10 | –
16 | CC(C)=CC(=O)SCCNC(=O)CCNC(=O)[C@H](O)C(C)(C)CO [Compound 37, S-2-{3-[(R)-2,4-dihydroxy-3,3-dimethylbutyrylamino]propionylamino}ethyl 3-methyl-2-butenethioate] | ≥ 10 | – | –
17 | CCC(=O)CC(=O)SCCNC(=O)CCNC(=O)[C@H](O)C(C)(C)CO [Compound 382, (2R)-2,4-dihydroxy-3,3-dimethyl-N-[2-([2-[(3-oxopentanoyl)sulfanyl]ethyl]carbamoyl)ethyl]butanamide] | – | ≥ 10 | –
18 | COC(=O)CCC(=O)SCCNC(=O)CCNC(=O)[C@H](O)C(C)(C)CO [Compound 4, Methyl (R)-4-((2-(3-(2,4-dihydroxy-3,3-dimethylbutanamido)propanamido)ethyl)thio)-4-oxobutanoate] | ≥ 10 | ≥ 10 | activation at 10 µM [2]: ≥ 10%
19 | CC(C)(CO)[C@@H](O)C(=O)NCCC(=O)NCCSC(=O)C1CCC(=O)N1 (stereo partly drawn) [Compound 1227, S-2-{3-[(R)-2,4-dihydroxy-3,3-dimethylbutyrylamino]propionylamino}ethyl 5-oxo-2-pyrrolidinecarbothioate] | ≥ 10 | – | activation at 10 µM [2]: ≥ 10%
20 | C/C=C/C(=O)SCCNC(=O)CCNC(=O)[C@H](O)C(C)(C)COP(=O)(O)O [Compound 82, (R)—S-(2-(3-(2-hydroxy-3,3-dimethyl-4-(phosphonooxy)butanamido)propanamido)ethyl) (E)-but-2-enethioate] | ≥ 10 | – | –
